Laboratory results published in ChEMBL document CHEMBL1201862, “PubChem BioAssay data set” (2004).
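96-well plates; 48 h exposure; 5 concentrations. Endpoints by linear interpolation between flanking doses. Not reached: highest tested concentration assigned. Abbreviation: GI50, concentration required for 50% inhibition of growth.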 Calls of active or inactive are those of the source. No stated cut-off is given here; in the data, active = GI50 up to about 1.1 µM and inactive = higher.

Experiments:
Experiment in all cases: NCI anticancer screen, dose series, 48 h
[1] = system: MDA-MB-231
[2] = system: SN12C
[3] = system: NCI-H226
[4] = system: 786-0
[5] = system: RXF 393
[6] = system: HCC 2998
[7] = system: SF-268
[8] = system: SK-MEL-28
[9] = system: SK-MEL-2
[10] = system: T47D
[11] = system: M14
[12] = system: ACHN
[13] = system: LOX IMVI
[14] = system: EKVX
[15] = system: SNB-19
[16] = system: PC-3
[17] = system: TK-10
[18] = system: NCI-H522
[19] = system: OVCAR-4
[20] = system: Hs-578T
[21] = system: NCI-H460
[22] = system: UACC-257
[23] = system: HOP-92
[24] = system: OVCAR-3
[25] = system: A549
[26] = system: U-251
[27] = system: HOP-62
[28] = system: SF-539
[29] = system: KM12
[30] = system: IGROV-1
[31] = system: OVCAR-8
[32] = system: DU-145
[33] = system: BT-549
[34] = system: NCI/ADR-RES
[35] = system: HCT-116
[36] = system: SNB-75
[37] = system: SW-620
[38] = system: CCRF-CEM
[39] = system: HL-60
[40] = system: UO-31
[41] = system: K562
[42] = system: SR
[43] = system: COLO 205
[44] = system: RPMI-8226
[45] = system: OVCAR-5
[46] = system: SK-MEL-5
[47] = system: MDA-N
[48] = system: MCF7
[49] = system: A498
[50] = system: MOLT-4
[51] = system: NCI-H23
[52] = system: SF-295
[53] = system: MDA-MB-435
[54] = system: Malme-3M
[55] = system: HT-29
[56] = system: HCT-15
[57] = system: UACC-62
[58] = system: SK-OV-3
[59] = system: CAKI-1

For `COc1ccc2[nH]c3c(O)c(-c4c(C)cc5c([nH]c6ccc(OC)cc65)c4O)c(C)cc3c2c1`, the GI50 [1] was 5.74 µM (inactive), the GI50 [2] was 4.43 µM (inactive) and the GI50 [3] was 4.38 µM (inactive). The GI50 [4] was 4.91 µM (inactive), the GI50 [5] was 4.84 µM (inactive) and the GI50 [6] was 3.7 µM (inactive). The GI50 [7] was 4.48 µM (inactive), the GI50 [8] was 5.55 µM (inactive) and the GI50 [9] was 5.41 µM (inactive). The GI50 [10] was 9.86 µM (inactive), the GI50 [11] was 4.13 µM (inactive) and the GI50 [12] was 4.66 µM (inactive). For the same compound, the GI50 [13] was 4.38 µM (inactive), the GI50 [14] was 4.09 µM (inactive) and the GI50 [15] was 4.69 µM (inactive). The GI50 [16] was 4.27 µM (inactive), the GI50 [17] was 4.45 µM (inactive) and the GI50 [18] was 4.93 µM (inactive). For the same compound, the GI50 [19] was 3.88 µM (inactive), the GI50 [20] was 6.28 µM (inactive) and the GI50 [21] was 3.98 µM (inactive). For the same compound, the GI50 [22] was 4.24 µM (inactive), the GI50 [23] was 4.51 µM (inactive) and the GI50 [24] was 4.35 µM (inactive). For the same compound, the GI50 [25] was 4.05 µM (inactive), the GI50 [26] was 4.31 µM (inactive) and the GI50 [27] was 4.83 µM (inactive). The GI50 [28] was 4.86 µM (inactive), the GI50 [29] was 4.24 µM (inactive) and the GI50 [30] was 4.34 µM (inactive). The GI50 [31] was 4.5 µM (inactive), the GI50 [32] was 4.43 µM (inactive) and the GI50 [33] was 4.62 µM (inactive). The GI50 [34] was 4.24 µM (inactive), the GI50 [35] was 4.22 µM (inactive) and the GI50 [36] was 3.85 µM (inactive). For the same compound, the GI50 [37] was 4.41 µM (inactive).

For `CC(=O)OCc1cc(OC(C)=O)c2cc3c(OC(C)=O)cccc3c(OC(C)=O)c2c1`, the GI50 [1] was 17.1 µM (inactive), the GI50 [2] was 12.2 µM (inactive) and the GI50 [38] was > 10 µM (inactive). The GI50 [3] was 23.1 µM (inactive), the GI50 [39] was 9.51 µM (inactive) and the GI50 [4] was 13 µM (inactive). The GI50 [6] was 14.5 µM (inactive), the GI50 [40] was 17 µM (inactive) and the GI50 [7] was 21.2 µM (inactive). The GI50 [41] was 19.2 µM (inactive), the GI50 [42] was 19.5 µM (inactive) and the GI50 [8] was 23 µM (inactive). The GI50 [10] was 21.7 µM (inactive), the GI50 [11] was 12.5 µM (inactive) and the GI50 [12] was 11.6 µM (inactive). For the same compound, the GI50 [14] was 6.7 µM (inactive), the GI50 [15] was 18.3 µM (inactive) and the GI50 [16] was 16.5 µM (inactive). The GI50 [17] was 12.7 µM (inactive), the GI50 [43] was 6.67 µM (inactive) and the GI50 [44] was 11.2 µM (inactive). The GI50 [45] was 18.8 µM (inactive), the GI50 [46] was 11.2 µM (inactive) and the GI50 [47] was 17.1 µM (inactive). For the same compound, the GI50 [19] was 17.8 µM (inactive), the GI50 [48] was 12.8 µM (inactive) and the GI50 [49] was 11.2 µM (inactive). The GI50 [50] was 15.2 µM (inactive), the GI50 [51] was 17.1 µM (inactive) and the GI50 [21] was 5.65 µM (inactive). The GI50 [52] was 13.6 µM (inactive), the GI50 [22] was 22 µM (inactive) and the GI50 [23] was 20.4 µM (inactive). For the same compound, the GI50 [24] was 13.7 µM (inactive), the GI50 [25] was 12.5 µM (inactive) and the GI50 [53] was 17.7 µM (inactive). The GI50 [26] was 15.6 µM (inactive), the GI50 [54] was 1.64 µM (inactive) and the GI50 [27] was 16.9 µM (inactive). For the same compound, the GI50 [55] was 14.8 µM (inactive), the GI50 [56] was 5.61 µM and the GI50 [57] was 13.3 µM (inactive). The GI50 [58] was 18.5 µM (inactive), the GI50 [30] was 14.5 µM (inactive) and the GI50 [31] was 13.3 µM (inactive). For the same compound, the GI50 [32] was 16.7 µM (inactive), the GI50 [33] was 20.1 µM (inactive) and the GI50 [34] was 17.2 µM (inactive). The GI50 [35] was 19.7 µM (inactive), the GI50 [36] was 22.3 µM (inactive) and the GI50 [37] was 12.2 µM (inactive).

For `COc1ccc(C(O)c2ccc3c(c2)OCO3)cc1` (stereo not drawn), the GI50 [1] was > 100 µM (inactive), the GI50 [2] was > 100 µM (inactive) and the GI50 [38] was > 100 µM (inactive). For the same compound, the GI50 [3] was > 100 µM (inactive), the GI50 [39] was > 100 µM (inactive) and the GI50 [4] was > 100 µM (inactive). For the same compound, the GI50 [5] was > 100 µM (inactive), the GI50 [6] was > 100 µM (inactive) and the GI50 [40] was 74.1 µM (inactive). The GI50 [7] was > 100 µM (inactive), the GI50 [41] was > 100 µM (inactive) and the GI50 [42] was 25.6 µM (inactive). The GI50 [8] was > 100 µM (inactive), the GI50 [10] was 99.3 µM (inactive) and the GI50 [11] was > 100 µM (inactive). For the same compound, the GI50 [12] was > 100 µM (inactive), the GI50 [13] was > 100 µM (inactive) and the GI50 [14] was > 100 µM (inactive). The GI50 [15] was > 100 µM (inactive), the GI50 [16] was > 100 µM (inactive) and the GI50 [17] was > 100 µM (inactive). For the same compound, the GI50 [43] was > 100 µM (inactive), the GI50 [18] was > 100 µM (inactive) and the GI50 [45] was > 100 µM (inactive). For the same compound, the GI50 [47] was > 100 µM (inactive), the GI50 [19] was 67.6 µM (inactive) and the GI50 [48] was > 100 µM (inactive). For the same compound, the GI50 [49] was > 100 µM (inactive), the GI50 [50] was > 100 µM (inactive) and the GI50 [51] was > 100 µM (inactive). The GI50 [21] was > 100 µM (inactive), the GI50 [52] was > 100 µM (inactive) and the GI50 [22] was > 100 µM (inactive). The GI50 [23] was > 100 µM (inactive), the GI50 [24] was > 100 µM (inactive) and the GI50 [25] was > 100 µM (inactive). The GI50 [53] was > 100 µM (inactive), the GI50 [26] was > 100 µM (inactive) and the GI50 [54] was > 100 µM (inactive). For the same compound, the GI50 [27] was > 100 µM (inactive), the GI50 [55] was > 100 µM (inactive) and the GI50 [56] was greater than 100 µM. The GI50 [28] was > 100 µM (inactive), the GI50 [57] was > 100 µM (inactive) and the GI50 [29] was > 100 µM (inactive). For the same compound, the GI50 [58] was > 100 µM (inactive), the GI50 [30] was > 100 µM (inactive) and the GI50 [31] was > 100 µM (inactive). For the same compound, the GI50 [32] was > 100 µM (inactive), the GI50 [59] was > 100 µM (inactive) and the GI50 [33] was > 100 µM (inactive). The GI50 [34] was 65.6 µM (inactive), the GI50 [35] was > 100 µM (inactive) and the GI50 [36] was 1.94 µM (inactive). For the same compound, the GI50 [37] was > 100 µM (inactive).
